Assay results taken from patent US20060079447A1, “Stabilized A-beta protofibrillar aggregates” (priority 2004, published 2006).
Counter-ions that a name gives are not always drawn. Like-named read-outs stand apart in the source and are kept apart here.

Columns and labels:
[1] = biological target: T1, Aβ(1-40) fibrils / biotinyl-Aβ(1-40) (Homo sapiens, UniProt P05067); assay: Microplate Aβ(1-40) elongation screening assay, LOPAC library; type: biochemical; conditions: for Initial stimulation observed: original LOPAC screen, deposition of biotinyl-Aβ(1-40) on immobilized fibrils
T1 construct: purchased Keck Biotechnology Center at Yale University
Description: Microtiterplate Elongation and Screening Assays. The Aβ(1-40) microplate elongation assay has been described (12). For screening the compound library, plates were coated with 100 ng Aβ(1-40) fibrils and washed. The assay was initiated by adding to each well, in order, 80 μl assay buffer [PBSA (phosphate-buffered saline containing 0.05% (w/v) sodium azide) containing 0.05% Tween 20], 10 μl of a 1 mM solution of test compound in DMSO, and 10 μl 100 nM biotinyl-Aβ in assay buffer. Plates were incubated 30 mins at 37° C., then washed and the signal developed as described using a streptavidin-europium linked fluorescence assay (12, 13). Each microplate collection of compounds was assayed in triplicate, and results reported as % inhibition compared to control wells lacking test compounds.
We screened a small library of 640 compounds, the LOPAC library (Sigma), using a microplate-based Aβ elongation assay. In this assay, plastic wells containing immobilized fibrils are incubated with a biotin-tagged monomer in the presence or absence of potential modifiers (13, 18). We found a number of compounds with potent abilities to enhance deposition of the biotin-tagged Aβ(1-40) (FIG. 1). Seven of the compounds were selected for further analysis:—amiloride HCl, phenamil methane sulfonate, naftopidil dihydrochloride, NPC 15437 dihydrochloride, calmidazolium chloride (R24571), 5-(nonoxyl)-tryptamine hydrogen oxalate, and L-α-methyl DOPA. The compounds have a wide variety of structures and biochemical properties. The structures of these seven compounds are shown in FIG. 9, along with the percent stimulation observed in the experiments.
We characterized the activity of CLC in the microplate assay in more detail.

[2] = biological target: T2, Aβ (Homo sapiens, UniProt P05067); assay: Secondary screening: aggregate formation in the absence of seeding Aβ amyloid fibrils; type: biochemical
T2 construct: purchased Keck Biotechnology Center at Yale University
From the text: Four compounds—calmidazolium chloride, NPC 15437, phenamil methane sulfonate, and amiloride HCl were chosen for secondary screening, e.g., assaying for formation of stabilized Aβ protofibrillar aggregates in the absence of seeding Aβ amyloid fibrils. All four compounds to be retested were purchased from Sigma.

[3] = biological target: T3, Aβ(1-40) (Homo sapiens, UniProt P05067); assay: Solution phase aggregation assay (ThT fluorescence, HPLC of centrifugation supernatants); type: biochemical
T3 construct: purchased Keck Biotechnology Center at Yale University
Description: Aβ(1-40) peptides were disaggregated just prior to use, as described previously (12, 14). Peptides (50 μM in fibril formation reactions, approximately 30 μM in CLC aggregation reactions) were incubated in […] at 37° C. Reaction progress was followed by ThT fluorescence and/or quantitative HPLC on centrifugation (30 mins, 315,000×g) supernatants of reaction aliquots (12, 15). The Cr value is the concentration of Aβ in solution when this value stops changing with time. For amyloid fibril growth, this value represents a position of dynamic equilibrium and is the reciprocal of the growth equilibrium constant for the amyloid fibrils (15); for the CLC-induced aggregation, the value is a more qualitative measure of the stability of the Aβ-CLC aggregates. Samples of aggregates were stored at −80° C. after snap-freezing of washed pellets. Reactions with CLC contained 10% DMSO from the CLC stock solution.
To confirm the microtiter plate assay, we carried out solution phase experiments using unlabelled Aβ(1-40). […] During the ThT lag phase, the amount of soluble, monomeric Aβ is reduced by about a factor of two, consistent with the formation of protofibrillar structures with low ThT response (2). In contrast, in the presence of 100 μM CLC, Aβ(1-40) is rapidly converted to a pelletable aggregate, so that within 1-2 hrs only 2-3 μM Aβ remains in solution after centrifugation (FIG. 3a,b); when these aggregates are isolated by sedimentation, they are found to contain a ratio of 4 moles of CLC per mole of Aβ(1-40) (results of independent analyses against both HPLC and MS standard curves). The significance of this ratio is not clear.

[4] = biological target: T4, Aβ (1-42) (Homo sapiens, UniProt P05067); conditions: cited from earlier work
T4 construct: polymeric sheet intermediates using Aβ (1-42) and a compound Ro 90-7501

[5] = biological target: CLC-Aβ(1-40) aggregates (stabilized Aβ protofibrillar aggregates made with calmidazolium chloride); assay: solution phase aggregation with 100 µM CLC; HPLC of centrifugation supernatants
[6] = stimulation of Aβ deposition, microplate assay, read-out: EC50

T2 sequence (P05067 672-711 limits assumed): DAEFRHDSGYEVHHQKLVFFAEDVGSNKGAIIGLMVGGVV
T3 sequence (P05067 672-711): as the sequence (P05067 672-711 limits assumed) above
T1 sequence (P05067 672-711): as the sequence (P05067 672-711 limits assumed) above
T4 sequence (P05067 672-713): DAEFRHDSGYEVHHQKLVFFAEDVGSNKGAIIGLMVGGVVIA

Compound | Initial stimulation observed [1] [%] | EC50 [1, 6] [µM] | Activity in enhancing aggregate formation [2] | other results
CCCCCCCCCOc1ccc2[nH]cc(CCN)c2c1.O=C(O)C(=O)O [5-(nonyloxy)-tryptamine hydrogen oxalate] | 136 |  |  | EC50 [1]: ≥ 30.3 µM
N=C(N)NC(=O)c1nc(Cl)c(N)nc1N [Amiloride HCl, amiloride HCl] | 96 | ≥ 38.5 | sub-optimal activity | 
Clc1ccc(C(c2ccc(Cl)cc2)n2cc[n+](CC(OCc3ccc(Cl)cc3Cl)c3ccc(Cl)cc3Cl)c2)cc1 (stereo not shown) [Calmidazolium chloride, calmidazolium chloride] | 598 | ≥ 21.4 | potent stabilizing compound | ThT signal relative to the same weight of mature amyloid fibrils ([3]; 100 μM CLC, after 14 days): about 20%; Aβ remaining in solution after centrifugation ([3]; 100 μM CLC, within 1-2 hrs): 2 to 3 µM; Stimulation of Aβ deposition compared to the elongation reaction in the absence of added compound ([1]; at 100 μM): about six; Concentrations at which deposition is stimulated (dose response) ([1]; deposition of 10 nM Aβ): 10 to 100 µM
C[C@](N)(Cc1ccc(O)c(O)c1)C(=O)O [L-α-methyl DOPA] | 127 | ≥ 34.2 |  | 
CCCCCCCCCCCCC(=O)N1CCCCC1CNC(=O)C(N)CCCCN (stereo not shown) [NPC15437] | 149 | > 27.2 | sub-optimal activity | 
COc1ccccc1N1CCN(CC(O)COc2cccc3ccccc23)CC1 (stereo not shown) [Naftopidil dihydrochloride, naftopidil dihydrochloride] | 150 | ≥ 36.2 |  | 
NC(=Nc1ccccc1)NC(=O)c1nc(Cl)c(N)nc1N [Phenamil methane sulfonate, phenamil methane sulfonate] | 242 | ≥ 35.5 | sub-optimal activity | 
Nc1ccc(-c2nc3ccc(-c4nc5ccc(N)cc5[nH]4)cc3[nH]2)cc1 [Ro 90-7501] |  |  |  | Effect on formation of mature fibrils [4]: retarded but did not block formation of mature fibrils
P4: tetra-substituted Aβ(1-40) mutant with prolines at positions 9, 23, 30 and 37, SEQ ID NO:34 (DAEFRHDSPYEVHHQKLVFFAEPVGSNKGPIIGLMVPGVV; Amyloid-beta protein 40; UniProt P05067 672-711, looked up, variant G9P D23P A30P G37P) |  |  |  | Stability of amyloid fibrils ([3]; scanning proline mutagenesis): same stability as wild type Aβ(1-40); Stability of CLC aggregates ([3]; scanning proline mutagenesis, 100 μM CLC): significantly destabilized compared to WT
WT Aβ(1-40): wild type Aβ(1-40) peptide, SEQ ID NO:1 |  |  |  | Cr value, protofibril formation ([3]; CLC-induced aggregation): 1.6 µM; Cr value, fibril formation ([3]; amyloid fibril growth): 0.8 µM
wild type Aβ(1-40) (disaggregated, monomeric) (peptide) |  |  |  | Cr (concentration of Aβ in solution when it stops changing with time) [5]: 1.6 µM
